# Results taken from US4398937A, “Selective algaecides for control of cyanochloronta” (The University of Southern Mississippi, priority 1981, dated 1983).
# Key:
# Fish (adult catfish) = assay: Field Experiment II, taste and odor of fish; assay type: in vivo; settings: for Fish Odor / Fish Taste: 2 ppm on 5/26/81
# Stigeoclonium = assay: Selective effect on algae in test tubes (Table V), Stigeoclonium; assay type: cell-based; settings: for cells/ml: 13 days after innoculation, average of 3 samples
# Procedure: (§1) Another laboratory experiment was run to further substantiate the selective effect of one of the algaecides, potassium ricinoleate. Two species of blue-green algae, Lyngbya and Cylindrospermum, and three species of green algae, Chlorella, Haematococcus and Stigeoclonium and Tribonema, a yellow-green alga of the division Chrysophycophyta, were treated as follows: Twenty ml test tubes of sterile BBM culture solution were innoculated with each alga. All species of algae were evaluated with three groups, control, 2.5 ppm algaecide and 7.5 ppm algaecide. Each group was run with triplicate samples.
# (§2) Controls were counted 6 days after innoculation, algaecide was added to the treatment groups seven days after innoculation and all test tubes were counted thirteen days after innoculation. The results are shown in Table V. After seven days, there was a 31% reduction in the Lyngbya cultures at 2.5 ppm algaecide and a 40% reduction at 7.5 ppm. After seven days, there was a 60% reduction in Cylindrospermum cultures at 2.5 ppm algaecide and a 72% reduction at 7.5 ppm. […] After thirteen days, there was a 55% reduction in numbers at both 2.5 ppm and 7.5 ppm. After twenty days there was a 27% reduction at both concentrations. […] They are, like blue-green algae, often associated with taste and odor problems.
# [1] = Field Experiment I, total organism dry weight; assay type: in vivo; settings: 10 ppm
# Procedure: (§3) 1, 1980, to Mar. 19, 1981.
# (§4) On July 30, 1980, most ponds had numbers of blue-green algae exceeding 2×10^6 cells/liter. These algae were predominantly Oscillatoria,Microcystis and Anacystis with smaller numbers of Nostoc, Anabaena and Lyngbya. The experimental pond had 1.2×10^6 cells/liter composed mainly of Microcystis sp. Large numbers of copepods and rotifers were present. On July 30, the pond was treated with 10 ppm potassium ricinoleate by distributing a 30% aqueous solution evenly through the water column by pump from a small boat. […] This is further substantiated by the dry weights and chlorophyll a levels.
# [2] = tested on: sewage containing mostly green algae; assay: Sewage treatment test 1, mostly green algae; settings: for cells/liter: after six days of aeration
# Procedure: Two experiments were performed on sewage to further illustrate the utility of these algaecides. In the first experiment, sewage containing mostly green algae was treated with relatively high concentrations of potassium ricinoleate.
# green algae [3] = assay: Field Experiment I, catfish pond, green algae and other phytoplankton; assay type: in vivo; settings: 10 ppm
# Procedure: as §3, §4
# [4] = tested on: blue-green algae (Microcystis and Oscillatoria); assay: Sewage treatment test 2, dense bloom of blue-green algae; settings: ten days after treatment
# Source text: Ten days after treatment aeration was stopped and cell debris was allowed to settle.
# [5] = Field Experiment II, taste and odor of water; assay type: in vivo; settings: 2 ppm on 5/26/81
# zooplankton [6] = assay: Field Experiment II, catfish pond, zooplankton; assay type: in vivo; settings: 2 ppm
# green algae [7] = assay: Field Experiment II, catfish pond, green algae; assay type: in vivo; settings: 2 ppm
# catfish fingerlings = assay: Toxicity to catfish fingerlings in aquaria; assay type: in vivo
# Procedure: For any algaecide to be useful in aquaculture, it must be without harmful effects on fish populations in ponds to be treated. Experiments to determine the effects of potassium ricinoleate on fish were performed in two 250 gallon aquaria using various concentrations of the algaecide. Batches of 25 live 5 in. catfish fingerlings were treated with 5, 10, 15, 20, 30, 35 and 100 ppm algaecide and observed for 48 hours.
# Zooplankton [8] = assay: Field Experiment I, catfish pond, zooplankton; assay type: in vivo, copepods and rotifers; settings: 10 ppm
# Procedure: as §3, §4
# [9] = in vivo
# Chlorella = assay: Selective effect on algae in test tubes (Table V), Chlorella; assay type: cell-based; settings: for cells/ml: 13 days after innoculation, average of 3 samples
# Procedure: as §1, §2
# [10] = scale 0 to 5 (5 worst, 0 undetectable), 6/1/81
# [11] = 2.5 and 7.5 ppm, after seven days
# [12] = 7/31 post-treatment (treated July 30, 1980)
# [13] = 11/21 post-treatment (normal winter reduction)
compound,measurement,setting,value
CCCCCC[C@@H](O)C/C=C\CCCCCCCC(=O)[O-].[K+],Fish Odor,Fish (adult catfish); [10],2
same,Fish Taste,Fish (adult catfish); [10],3
same,Fish Odor,"Fish (adult catfish); scale 0 to 5, 6/5/81",1
same,Fish Taste,"Fish (adult catfish); scale 0 to 5, 6/5/81",2
same,Fish Odor,"Fish (adult catfish); scale 0 to 5, 6/12/81",1
same,Fish Taste,"Fish (adult catfish); scale 0 to 5, 6/12/81",1
same,Fish Odor,"Fish (adult catfish); scale 0 to 5, 6/15/81",0
same,Fish Taste,"Fish (adult catfish); scale 0 to 5, 6/15/81",0
same,earthy musty taste and odor of fish,"Fish (adult catfish); 2 ppm, over a three week period",eliminated
same,effect,Stigeoclonium; [11],remained unchanged
same,cells/ml,Stigeoclonium; 2.5 ppm,1900 cells/ml
same,cells/ml,Stigeoclonium; 7.5 ppm,1900 cells/ml
same,Dry Wgts,[1]; [12],2.19 Gm/Liter
same,Dry Wgts,[1]; 8/1 post-treatment,4.45 Gm/Liter
same,Dry Wgts,[1]; 8/6 post-treatment,17.90 Gm/Liter
same,Dry Wgts,[1]; 8/19 post-treatment,5.34 Gm/Liter
same,Dry Wgts,[1]; 9/6 post-treatment,20.69 Gm/Liter
same,Dry Wgts,[1]; 9/23 post-treatment,9.06 Gm/Liter
same,Dry Wgts,[1]; [13],1.03 Gm/Liter
same,Dry Wgts,[1]; 12/14 post-treatment,4.84 Gm/Liter
same,cells/liter,[2]; 18.4 ppm,1.91 × 10^5 cells/liter
same,cells/liter,[2]; 46.0 ppm,1.33 × 10^5 cells/liter
same,cells/liter,[2]; 92.0 ppm,2.30 × 10^5 cells/liter
same,cells/liter,[2]; 184.1 ppm,2.72 × 10^5 cells/liter
same,effect on green algae,[2]; six days after treatment,somewhat stimulated
same,Cells/Liter of green algae,green algae [3]; [12],6.2 × 10^4 Cells/Liter
same,Cells/Liter of green algae,green algae [3]; 8/1 post-treatment,5.0 × 10^4 Cells/Liter
same,Cells/Liter of green algae,green algae [3]; 8/6 post-treatment,2.1 × 10^4 Cells/Liter
same,Cells/Liter of green algae,green algae [3]; 8/19 post-treatment,0 Cells/Liter
same,Cells/Liter of green algae,green algae [3]; 9/6 post-treatment,1.7 × 10^4 Cells/Liter
same,Cells/Liter of green algae,green algae [3]; 9/23 post-treatment,4.5 × 10^5 Cells/Liter
same,Cells/Liter of green algae,green algae [3]; [13],2.5 × 10^3 Cells/Liter
same,Cells/Liter of green algae,green algae [3]; 12/14 post-treatment,0 Cells/Liter
same,numbers of other phytoplankton,green algae [3]; seven days after treatment,essentially unchanged or increased in numbers
same,cells/liter,[4]; 2.5 ppm,8.3 × 10^5 cells/liter
same,cells/liter,[4]; 5.0 ppm,7.9 × 10^5 cells/liter
same,cells/liter,[4]; 10.0 ppm,6.6 × 10^5 cells/liter
same,cells/liter,[4]; 15.0 ppm,4.4 × 10^5 cells/liter
same,state of enumerated suspended cells,[4],appeared dead
same,Water Odor,[5]; [10],0
same,Water Taste,[5]; [10],1
same,Water Odor,"[5]; scale 0 to 5, 6/5/81",0
same,Water Taste,"[5]; scale 0 to 5, 6/5/81",1
same,Water Odor,"[5]; scale 0 to 5, 6/12/81",0
same,Water Taste,"[5]; scale 0 to 5, 6/12/81",0
same,Water Odor,"[5]; scale 0 to 5, 6/15/81",0
same,Water Taste,"[5]; scale 0 to 5, 6/15/81",0
same,Zoo #'s/liter,"zooplankton [6]; 5/26/81 B post-treat, 4 p.m., Deep",755 #'s/liter
same,Zoo #'s/liter,"zooplankton [6]; 5/26/81 C post-treat, 4 p.m., Shallow",2270 #'s/liter
same,Zoo #'s/liter,"zooplankton [6]; 5/27/81 D, 9:40 p.m., Deep",0 #'s/liter
same,Zoo #'s/liter,"zooplankton [6]; 5/27/81 E, 9:40 p.m., Shallow",1510 #'s/liter
same,Zoo #'s/liter,"zooplankton [6]; 5/28/81 F, 7 a.m.",756 #'s/liter
same,Zoo #'s/liter,"zooplankton [6]; 5/28/81 G, 11 a.m.",2270 #'s/liter
same,zooplankton after treatment,"zooplankton [6]; through June, 1981",remained unchanged
same,Cells/liter green algae,"green algae [7]; 5/26/81 B post-treat, 4 p.m., Deep, prevalent Mic",3.2 × 10^5 Cells/liter
same,Cells/liter green algae,"green algae [7]; 5/26/81 C post-treat, 4 p.m., Shallow, prevalent Ped",2.0 × 10^5 Cells/liter
same,Cells/liter green algae,"green algae [7]; 5/27/81 D, 9:40 p.m., Deep, prevalent Ped",2.6 × 10^5 Cells/liter
same,Cells/liter green algae,"green algae [7]; 5/27/81 E, 9:40 p.m., Shallow, prevalent Ped",1.09 × 10^5 Cells/liter
same,Cells/liter green algae,"green algae [7]; 5/28/81 F, 7 a.m., prevalent Ped",1.3 × 10^5 Cells/liter
same,Cells/liter green algae,"green algae [7]; 5/28/81 G, 11 a.m., prevalent Ped",1.1 × 10^5 Cells/liter
same,green algae after treatment,"green algae [7]; through June, 1981",remained unchanged
same,fish survival,"catfish fingerlings; 35 ppm and lower, observed for 48 hours",All fish survived
same,fish mortality,"catfish fingerlings; 100 ppm, at 12 hours",All fish had died
same,Zooplankton #/Liter,Zooplankton [8]; [12],2531 #/Liter
same,Zooplankton #/Liter,Zooplankton [8]; 8/1 post-treatment,2500 #/Liter
same,Zooplankton #/Liter,Zooplankton [8]; 8/6 post-treatment,4050 #/Liter
same,Zooplankton #/Liter,Zooplankton [8]; 8/19 post-treatment,2025 #/Liter
same,Zooplankton #/Liter,Zooplankton [8]; 9/6 post-treatment,4050 #/Liter
same,Zooplankton #/Liter,Zooplankton [8]; 9/23 post-treatment,506 #/Liter
same,Zooplankton #/Liter,Zooplankton [8]; [13],1012 #/Liter
same,Zooplankton #/Liter,Zooplankton [8]; 12/14 post-treatment,1518 #/Liter
same,numbers of zooplankton,Zooplankton [8]; seven days after treatment,essentially unchanged or increased in numbers
same,oxygen depletion problems,[9],no oxygen depletion problems noted
same,effect,Chlorella; [11],slightly inhibited
same,cells/ml,Chlorella; 2.5 ppm,44000 cells/ml
same,cells/ml,Chlorella; 7.5 ppm,49000 cells/ml
